Article PMC10538245, “Fragment merging approach for design, synthesis, and biological assessment of urea/acetyl hydrazide clubbed thienopyrimidine derivatives as GSK-3β inhibitors” (BMC Chemistry, 2023)

Legend:
NCI-H522 = assay: NCI 60-cell line one dose antiproliferative assay; type: cell-based; conditions: Homo sapiens; NCI-H522, Non-Small Cell Lung Cancer, 10 µM one dose; read-out: Percent inhibition (cell growth inhibition %)
Text: (§1) The National Cancer Institute "NCI", NIH, Bethesda, Maryland, USA (www.dtp.nci.nih.gov) chose six of the final compounds for the Developmental Therapeutic Program (DTP), codes (5a, 5b, 5c, 5d, 6a, 6b). The NCI screening service will favor compounds with drug-like modes of action based on computer-aided design. Selection The criterion for screening is the possibility of the submitted compounds to provide diversity to the NCI small molecule chemical collection. This screen employs 60 different Leukemia, melanoma, and additional tumor cell lines of the human from brain, kidney, lung, ovary, colon, breast, and prostate cancers. All compounds were picked based on their NCI codes. NSC: D-820696/1, NSC: D-820697/1, NSC: D-820698/1, NSC: D-820699/1, NSC: D-820700/1, NSC: D-820701/1. The initial 10 µM one dose percent inhibition assay was performed on the entire NCI 60 cell panel to examine the different chemotypes of this work. The results are presented as a percentage of cell growth on each of the 60 NCI cell line panels for each of the investigated substances in Table 2.
(§2) The NCI cancer screening procedure includes a comparison of all substances to the sixty NCI cell line panel representing leukemia, NSCLC, cell lines from breast cancer, prostate cancer, melanoma, CNS cancer, renal cancer, ovarian cancer, and colon cancer at a single point of 10 uM. The results of the single-dose screen can be presented using a mean graph.

UO-31 = assay: NCI 60-cell line one dose antiproliferative assay; type: cell-based; conditions: Homo sapiens; UO-31, Renal Cancer, 10 µM one dose; read-out: Percent inhibition (cell growth inhibition %)
Text: as §1, §2

786–0 = assay: NCI 60-cell line one dose antiproliferative assay; type: cell-based; conditions: Homo sapiens; 786–0, Renal Cancer, 10 µM one dose; read-out: Percent inhibition (cell growth inhibition %)
Text: as §1, §2

OVCAR-5 = assay: NCI 60-cell line one dose antiproliferative assay; type: cell-based; conditions: Homo sapiens; OVCAR-5, Ovarian Cancer, 10 µM one dose; read-out: Percent inhibition (cell growth inhibition %)
Text: as §1, §2

SN12C = assay: NCI 60-cell line one dose antiproliferative assay; type: cell-based; conditions: Homo sapiens, Renal Cancer, 10 µM one dose, read-out: Percent inhibition (cell growth inhibition %)
Text: as §1, §2

T-47D = assay: NCI 60-cell line one dose antiproliferative assay; type: cell-based; conditions: Homo sapiens, T47D, Breast Cancer, 10 µM one dose, read-out: Percent inhibition (cell growth inhibition %)
Text: as §1, §2

PC-3 = assay: NCI 60-cell line one dose antiproliferative assay; type: cell-based; conditions: Homo sapiens; PC-3, Prostate Cancer, 10 µM one dose; read-out: Percent inhibition (cell growth inhibition %)
Text: as §1, §2

SNB-75 = assay: NCI 60-cell line one dose antiproliferative assay; type: cell-based; conditions: Homo sapiens; SNB-75, CNS Cancer, 10 µM one dose; read-out: Percent inhibition (cell growth inhibition %)
Text: as §1, §2

M14 = assay: NCI 60-cell line one dose antiproliferative assay; type: cell-based; conditions: Homo sapiens; M14, Melanoma, 10 µM one dose; read-out: Percent inhibition (cell growth inhibition %)
Text: as §1, §2

NCI-H226 = assay: NCI 60-cell line one dose antiproliferative assay; type: cell-based; conditions: Homo sapiens; NCI-H226, Non-Small Cell Lung Cancer, 10 µM one dose; read-out: Percent inhibition (cell growth inhibition %)
Text: as §1, §2

MCF7 = assay: NCI 60-cell line one dose antiproliferative assay; type: cell-based; conditions: Homo sapiens; MCF7, Breast Cancer, 10 µM one dose; read-out: Percent inhibition (cell growth inhibition %)
Text: as §1, §2

CAKI-1 = assay: NCI 60-cell line one dose antiproliferative assay; type: cell-based; conditions: Homo sapiens; CAKI-1, Renal Cancer, 10 µM one dose; read-out: Percent inhibition (cell growth inhibition %)
Text: as §1, §2

SF-268 = assay: NCI 60-cell line one dose antiproliferative assay; type: cell-based; conditions: Homo sapiens; SF-268, CNS Cancer, 10 µM one dose; read-out: Percent inhibition (cell growth inhibition %)
Text: as §1, §2

HOP-92 = assay: NCI 60-cell line one dose antiproliferative assay; type: cell-based; conditions: Homo sapiens; HOP-92, Non-Small Cell Lung Cancer, 10 µM one dose; read-out: Percent inhibition (cell growth inhibition %)
Text: as §1, §2

SK-MEL-5 = assay: NCI 60-cell line one dose antiproliferative assay; type: cell-based; conditions: Homo sapiens; SK-MEL-5, Melanoma, 10 µM one dose; read-out: Percent inhibition (cell growth inhibition %)
Text: as §1, §2

SF-295 = assay: NCI 60-cell line one dose antiproliferative assay; type: cell-based; conditions: Homo sapiens; SF-295, CNS Cancer, 10 µM one dose; read-out: Percent inhibition (cell growth inhibition %)
Text: as §1, §2

A498 = assay: NCI 60-cell line one dose antiproliferative assay; type: cell-based; conditions: Homo sapiens; A498, Renal Cancer, 10 µM one dose; read-out: Percent inhibition (cell growth inhibition %)
Text: as §1, §2

MDA-MB-231/ATCC = assay: NCI 60-cell line one dose antiproliferative assay; type: cell-based; conditions: Homo sapiens, Breast Cancer, 10 µM one dose, read-out: Percent inhibition (cell growth inhibition %)
Text: as §1, §2

SF-539 = assay: NCI 60-cell line one dose antiproliferative assay; type: cell-based; conditions: Homo sapiens; SF-539, CNS Cancer, 10 µM one dose; read-out: Percent inhibition (cell growth inhibition %)
Text: as §1, §2

IGROV1 = assay: NCI 60-cell line one dose antiproliferative assay; type: cell-based; conditions: Homo sapiens, IGROV-1; IGROV1, Ovarian Cancer, 10 µM one dose; read-out: Percent inhibition (cell growth inhibition %)
Text: as §1, §2

HS 578 T = assay: NCI 60-cell line one dose antiproliferative assay; type: cell-based; conditions: Homo sapiens, Breast Cancer, 10 µM one dose, read-out: Percent inhibition (cell growth inhibition %)
Text: as §1, §2

LOX IMVI = assay: NCI 60-cell line one dose antiproliferative assay; type: cell-based; conditions: Homo sapiens, Melanoma, 10 µM one dose, read-out: Percent inhibition (cell growth inhibition %)
Text: as §1, §2

ACHN = assay: NCI 60-cell line one dose antiproliferative assay; type: cell-based; conditions: Homo sapiens, Renal Cancer, 10 µM one dose, read-out: Percent inhibition (cell growth inhibition %)
Text: as §1, §2

K-562 = assay: NCI 60-cell line one dose antiproliferative assay; type: cell-based; conditions: Homo sapiens, K562; K-562, Leukemia, 10 µM one dose; read-out: Percent inhibition (cell growth inhibition %)
Text: as §1, §2

UACC-62 = assay: NCI 60-cell line one dose antiproliferative assay; type: cell-based; conditions: Homo sapiens; UACC-62, Melanoma, 10 µM one dose; read-out: Percent inhibition (cell growth inhibition %)
Text: as §1, §2

SR = assay: NCI 60-cell line one dose antiproliferative assay; type: cell-based; conditions: Homo sapiens, Leukemia, 10 µM one dose, read-out: Percent inhibition (cell growth inhibition %)
Text: as §1, §2

U251 = assay: NCI 60-cell line one dose antiproliferative assay; type: cell-based; conditions: Homo sapiens, U-251; U251, CNS Cancer, 10 µM one dose; read-out: Percent inhibition (cell growth inhibition %)
Text: as §1, §2

SNB-19 = assay: NCI 60-cell line one dose antiproliferative assay; type: cell-based; conditions: Homo sapiens; SNB-19, CNS Cancer, 10 µM one dose; read-out: Percent inhibition (cell growth inhibition %)
Text: as §1, §2

MALME-3 M = assay: NCI 60-cell line one dose antiproliferative assay; type: cell-based; conditions: Homo sapiens, Melanoma, 10 µM one dose, read-out: Percent inhibition (cell growth inhibition %)
Text: as §1, §2

GSK-3β = GSK-3β (Homo sapiens, UniProt P49841); assay: GSK-3β kinase inhibition, Z'-LYTE FRET assay (Thermo Fisher SelectScreen); type: biochemical; conditions: for inhibition at 100 µM: 100 μM single dose
Sequence of GSK-3β (P49841 whole entry): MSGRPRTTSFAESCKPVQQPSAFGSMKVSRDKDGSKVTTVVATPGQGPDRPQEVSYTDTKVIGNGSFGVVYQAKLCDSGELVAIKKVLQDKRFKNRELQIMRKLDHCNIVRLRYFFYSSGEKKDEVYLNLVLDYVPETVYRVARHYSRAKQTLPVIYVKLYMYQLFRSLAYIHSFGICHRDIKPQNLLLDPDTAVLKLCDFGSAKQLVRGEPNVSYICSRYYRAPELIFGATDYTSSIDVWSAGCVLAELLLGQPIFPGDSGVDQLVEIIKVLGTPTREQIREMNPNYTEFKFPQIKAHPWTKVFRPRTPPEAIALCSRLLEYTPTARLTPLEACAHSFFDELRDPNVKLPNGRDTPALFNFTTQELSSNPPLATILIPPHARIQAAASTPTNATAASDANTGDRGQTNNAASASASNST

EKVX = assay: NCI 60-cell line one dose antiproliferative assay; type: cell-based; conditions: Homo sapiens, Non-Small Cell Lung Cancer, 10 µM one dose, read-out: Percent inhibition (cell growth inhibition %)
Text: as §1, §2

A549/ ATCC = assay: NCI 60-cell line one dose antiproliferative assay; type: cell-based; conditions: Homo sapiens, Non-Small Cell Lung Cancer, 10 µM one dose, read-out: Percent inhibition (cell growth inhibition %)
Text: as §1, §2

RXF 393 = assay: NCI 60-cell line one dose antiproliferative assay; type: cell-based; conditions: Homo sapiens; RXF 393, Renal Cancer, 10 µM one dose; read-out: Percent inhibition (cell growth inhibition %)
Text: as §1, §2

NCI-H322M = assay: NCI 60-cell line one dose antiproliferative assay; type: cell-based; conditions: Homo sapiens, Non-Small Cell Lung Cancer, 10 µM one dose, read-out: Percent inhibition (cell growth inhibition %)
Text: as §1, §2

RPMI-8226 = assay: NCI 60-cell line one dose antiproliferative assay; type: cell-based; conditions: Homo sapiens; RPMI-8226, Leukemia, 10 µM one dose; read-out: Percent inhibition (cell growth inhibition %)
Text: as §1, §2

HCT-15 = assay: NCI 60-cell line one dose antiproliferative assay; type: cell-based; conditions: Homo sapiens; HCT-15, Colon Cancer, 10 µM one dose; read-out: Percent inhibition (cell growth inhibition %)
Text: as §1, §2

NCI-H23 = assay: NCI 60-cell line one dose antiproliferative assay; type: cell-based; conditions: Homo sapiens; NCI-H23, Non-Small Cell Lung Cancer, 10 µM one dose; read-out: Percent inhibition (cell growth inhibition %)
Text: as §1, §2

HCT-116 = assay: NCI 60-cell line one dose antiproliferative assay; type: cell-based; conditions: Homo sapiens; HCT-116, Colon Cancer, 10 µM one dose; read-out: Percent inhibition (cell growth inhibition %)
Text: as §1, §2

SMILES | melting point | inhibition at 10 µM (NCI-H522) | inhibition at 10 µM (UO-31) | inhibition at 10 µM (786–0) | inhibition at 10 µM (OVCAR-5) | inhibition at 10 µM (SN12C) | inhibition at 10 µM (T-47D) | inhibition at 10 µM (PC-3) | inhibition at 10 µM (SNB-75) | inhibition at 10 µM (M14) | inhibition at 10 µM (MCF7) | inhibition at 10 µM (CAKI-1) | inhibition at 10 µM (A498) | inhibition at 10 µM (MDA-MB-231/ATCC) | inhibition at 10 µM (LOX IMVI) | inhibition at 10 µM (K-562) | inhibition at 10 µM (UACC-62) | inhibition at 10 µM (U251) | inhibition at 10 µM (SNB-19) | inhibition at 100 µM (GSK-3β) | also measured
COc1ccc(C=NNC(=O)COc2ncnc3sc4c(c23)CCCC4)c(OC)c1OC [5a, 2-((5,6,7,8-Tetrahydrobenzo [4,5]thieno[2,3-d]pyrimidin-4-yl)oxy)-N'-(2,3,4-trimethoxybenzylidene) acetohydrazide] | 280 to 281 °C | 5.39% | 23.3% | 0.81% | 5% | 5.91% | 4.24% | 2.52% | 28.5% | 1.68% | 10.7% | 7.04% | 11.8% | 6.61% | 4.82% | 7.93% | 8.06% | 0.3% | 6.88% | 24% | inhibition at 10 µM (NCI-H226): 0.3%; inhibition at 10 µM (SF-268): 0.3%; inhibition at 10 µM (HOP-92): 2.18%; inhibition at 10 µM (SK-MEL-5): 1.37%; inhibition at 10 µM (SF-295): 0.79%; inhibition at 10 µM (SF-539): 5.93%; inhibition at 10 µM (IGROV1): 1.47%; inhibition at 10 µM (HS 578 T): 7.21%; inhibition at 10 µM (ACHN): 0.55%; inhibition at 10 µM (SR): 2.15%; inhibition at 10 µM (MALME-3 M): 2.96%; inhibition at 10 µM (GSK-3β): 6%
O=C(COc1ncnc2sc3c(c12)CCCC3)NN=Cc1ccc(Cl)cc1 [5b, N'-(4-Chlorobenzylidene)-2-((5,6,7,8-tetrahydrobenzo [4,5]thieno[2,3-d]pyrimidin-4-yl)oxy) acetohydrazide] | 275 to 276 °C | – | 23.1% | 2.11% | 8.96% | 2.55% | 6.96% | 3.8% | 18.4% | 2% | 11.7% | 4.53% | 11.1% | 7.6% | 7.09% | 0.32% | 4.84% | 15.9% | 9.77% | 17% | inhibition at 10 µM (EKVX): 3.11%; inhibition at 10 µM (A549/ ATCC): 4.36%; inhibition at 10 µM (NCI-H226): 2.81%; inhibition at 10 µM (SF-268): 4.27%; inhibition at 10 µM (HOP-92): 0.71%; inhibition at 10 µM (IGROV1): 11%; inhibition at 10 µM (HS 578 T): 7.62%; inhibition at 10 µM (RXF 393): 4.13%; inhibition at 10 µM (NCI-H322M): 0.39%; inhibition at 10 µM (SR): 1.63%; inhibition at 10 µM (RPMI-8226): 2.71%; inhibition at 10 µM (MALME-3 M): 6.05%; inhibition at 10 µM (GSK-3β): 3%
O=C(COc1ncnc2sc3c(c12)CCCC3)NNC(=S)Nc1ccccc1 [6a] | 270 to 272 °C | 5.09% | 14.8% | 1.23% | 3.88% | 3.79% | 6.64% | 3.65% | 14.6% | 0.96% | 12.3% | 1.14% | 47% | 3.71% | 1.31% | 7.06% | 7.2% | 3.33% | 5.27% | 82% | inhibition at 10 µM (HCT-15): 0.17%; inhibition at 10 µM (NCI-H23): 3.1%; inhibition at 10 µM (SF-295): 2.64%; inhibition at 10 µM (SF-539): 2.42%; inhibition at 10 µM (NCI-H322M): 0.95%; inhibition at 10 µM (HCT-116): 1.5%; inhibition at 10 µM (RPMI-8226): 3.86%; IC50 (GSK-3β; five doses 10 nM–100 µM): 17.3 µM
O=C(COc1ncnc2sc3c(c12)CCCC3)NNC(=O)c1ccc([N+](=O)[O-])cc1 [6b] | 320 to 321 °C | – | – | – | – | – | – | – | – | – | – | – | – | – | – | – | – | – | – | – | –
